Tests used:
[1] = target: T1, ClpB W543F (Escherichia coli, UniProt P63284, W543F); experiment: Surface plasmon resonance, immobilized ClpB W543F; type: binding
T1 construct: made in house
Protocol: ClpB, DnaK, and the NBD of DnaK were extensively dialyzed against the SPR buffer (20-mM Hepes, pH 7.4, 150-mM NaCl, 20-mM MgCl2, 1-mM EDTA, 1-mM DTT). After dialysis, the protein concentration was determined by the Bradford method. The DBeQ–protein interactions were studied using a Biacore T200 instrument (GE Healthcare) at 25 °C. The proteins were diluted to 300 μg/ml in 10-mM sodium acetate buffer (pH 5 for ClpB DnaK or pH 4 for NBD) and immobilized on HC1500M sensor chips (Xantec) by standard amine coupling chemistry as described previously ([70]). A reference flow cell was created by ethyl(dimethylaminopropyl) carbodiimide/N-hydroxysuccinimide activation followed by quenching with 1 M ethanolamine (pH 9.0). Solvent correction curves were obtained at the beginning and end and after every 50 injection cycles by injecting varying DMSO concentrations (4.0, 4.4, 4.6, 4.8, 5.0, 5.2, 5.4, and 5.9% [v/v]). All experiments were performed using a flow rate of 30 μl/min.
Binding isotherms were obtained with the ligand diluted to different concentrations in the SPR running buffer HBSMTD (20-mM Hepes, pH 7.4, 140-mM NaCl, 20-mM MgCl2, 5% (v/v) DMSO, 0.005% (v/v) Tween-20). Replicate injections were performed for all samples, and a buffer-only injection was performed for every 12 injection cycles. To test the structural integrity of ClpB after immobilization on the sensor chips, we performed control titrations with ATPγS and adenosine. The dissociation constants determined from those experiments were ∼20 μM for ATPγS and ∼2 mM for adenosine. […] Moreover, the immobilized ClpB discriminated between a nucleotide analog and a nucleoside, which indicated an adequate structural integrity of ClpB on the sensor chips.
The resulting sensorgrams were analyzed using Biacore T200 Evaluation Software v3.0 according to the following procedure. Solvent correction curves were generated and applied to all data sets, and all sensorgrams were double-referenced by subtracting the most recent buffer blank injection. […]

[2] = target: T2, DnaK–DnaJ–GrpE (KJE) (Escherichia coli, UniProt P0A6Y8); experiment: Aggregate reactivation assay with KJE alone; type: biochemical
T2 construct: full-length E. coli DnaK (residues 1–638); made in house; host or cells: E. coli BL21(DE3) for DnaK
Protocol: G6PDH was chemically denatured by mixing 5 μl of the G6PDH stock solution (441 μM) with 5 μl of buffer A (10 M urea, 16% glycerol, 40-mM DTT) preheated at 47 °C. The samples of G6PDH in buffer A were incubated for 5 min at 47 °C. Subsequently, 5 μl of denatured G6PDH was mixed with 95 μl of buffer B (50-mM Tris-HCl, pH 7.4, 20-mM Mg(OAc)2, 30-mM KCl, 1-mM EDTA, 1-mM β-mercaptoethanol) preheated at 47 °C to initiate protein refolding, which, under these conditions, is inefficient and leads to misfolding and aggregation of G6PDH ([69]). G6PDH aggregate production was arrested after 1 min (for refolding by KJE) or 15 min (for refolding by KJE with ClpB) by transferring into ice for 2 min. […] The plate was inserted into Synergy H1 plate reader (BioTek, Winooski, VT) with the chamber temperature at 30 °C, and the sample absorbance at 340 nm was measured after 10 min. The amount of NADPH produced was calculated based on the NADPH molar extinction coefficient, Ɛ340 = 6220 [M^−1 ⋅ cm^−1].
Firefly luciferase (220 μM) was diluted 300-fold in PBS buffer with 1 mg/ml bovine serum albumin and then incubated for 12 min at 45 °C. […] Luminescence was measured using Synergy H1 plate reader (BioTek, Winooski, VT).

T1 sequence (P63284 whole entry W543F, looked up): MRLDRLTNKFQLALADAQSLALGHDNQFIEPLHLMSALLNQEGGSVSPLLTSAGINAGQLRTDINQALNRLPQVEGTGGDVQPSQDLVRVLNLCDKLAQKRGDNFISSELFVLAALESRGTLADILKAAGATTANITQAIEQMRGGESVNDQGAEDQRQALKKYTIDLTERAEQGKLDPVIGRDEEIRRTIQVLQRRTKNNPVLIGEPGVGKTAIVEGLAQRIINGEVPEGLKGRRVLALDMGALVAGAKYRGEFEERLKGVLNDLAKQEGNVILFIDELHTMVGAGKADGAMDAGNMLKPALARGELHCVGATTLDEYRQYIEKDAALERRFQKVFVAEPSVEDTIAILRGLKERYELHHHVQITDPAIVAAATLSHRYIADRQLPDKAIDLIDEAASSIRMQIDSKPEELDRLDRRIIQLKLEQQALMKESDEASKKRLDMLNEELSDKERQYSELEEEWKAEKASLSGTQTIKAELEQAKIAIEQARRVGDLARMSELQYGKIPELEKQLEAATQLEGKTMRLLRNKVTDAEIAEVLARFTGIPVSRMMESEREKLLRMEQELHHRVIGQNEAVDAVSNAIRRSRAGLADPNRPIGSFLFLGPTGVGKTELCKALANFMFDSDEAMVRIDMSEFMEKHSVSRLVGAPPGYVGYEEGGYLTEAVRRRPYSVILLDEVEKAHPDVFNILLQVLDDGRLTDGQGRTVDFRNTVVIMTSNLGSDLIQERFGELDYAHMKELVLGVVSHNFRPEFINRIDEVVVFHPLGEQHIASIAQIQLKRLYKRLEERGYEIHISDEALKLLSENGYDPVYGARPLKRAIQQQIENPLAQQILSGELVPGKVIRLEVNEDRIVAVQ
T2 sequence (P0A6Y8 whole entry, the tested form may be a part): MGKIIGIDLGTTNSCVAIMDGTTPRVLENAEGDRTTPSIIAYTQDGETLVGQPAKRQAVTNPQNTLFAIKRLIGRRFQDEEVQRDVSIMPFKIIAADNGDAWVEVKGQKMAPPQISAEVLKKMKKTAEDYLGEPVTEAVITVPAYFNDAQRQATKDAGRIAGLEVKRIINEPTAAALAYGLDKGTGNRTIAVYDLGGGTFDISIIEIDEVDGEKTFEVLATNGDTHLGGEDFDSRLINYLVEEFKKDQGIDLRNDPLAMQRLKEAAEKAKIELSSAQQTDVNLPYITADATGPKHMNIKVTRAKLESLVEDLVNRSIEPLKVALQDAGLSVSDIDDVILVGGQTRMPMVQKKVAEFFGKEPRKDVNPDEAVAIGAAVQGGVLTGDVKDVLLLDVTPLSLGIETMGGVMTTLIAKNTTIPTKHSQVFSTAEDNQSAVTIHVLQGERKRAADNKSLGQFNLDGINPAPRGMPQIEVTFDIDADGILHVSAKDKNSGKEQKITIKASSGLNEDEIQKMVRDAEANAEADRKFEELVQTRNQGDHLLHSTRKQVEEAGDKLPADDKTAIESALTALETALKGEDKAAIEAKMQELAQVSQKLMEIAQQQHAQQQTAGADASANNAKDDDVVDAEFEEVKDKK

Structure (SMILES): c1ccc(CNc2nc(NCc3ccccc3)c3ccccc3n2)cc1 [DBeQ, N^2,N^4-dibenzylquinazoline-2,4-diamine]
- Kd [1]: 59.1 ± 4.1 µM
- Bmax (SPR signal at saturation), ClpB W543F ([1]; SPR): 1.07 ± 0.03
- Hill coefficient, ClpB W543F ([1]; SPR): 2.4 ± 0.4
- inhibition of DnaK chaperone activity in vitro [2]: inhibited
- inhibition of ClpB-independent reactivation of aggregated luciferase ([2]; KJE alone, 20 min, 25 °C): inhibited

Source: paper PMC7948422, “Repurposing p97 inhibitors for chemical modulation of the bacterial ClpB–DnaK bichaperone system” (The Journal of Biological Chemistry, 2020)
